From article PMC3478992, “Cloning and characterization of a novel 2-ketoisovalerate reductase from the beauvericin producer Fusarium proliferatum LF061” (BMC Biotechnology, 2012)

Molecular target: T1, KivRFp (2-ketoisovalerate reductase) (Fusarium proliferatum, UniProt I3VQI5)
T1 construct: full length, 452 residues, 52 kDa, N-terminal His-tag (pET28a), codon-optimised synthetic gene, E. coli BL21(DE3), Ni-NTA purified
Experiment: spectrophotometric NADPH oxidation at […] nm
Assay type: biochemical
Conditions: 0.7 mM 2-Kiv, 50 mM sodium phosphate pH 7.0, 35 °C

T1 sequence (I3VQI5 entry or part of it): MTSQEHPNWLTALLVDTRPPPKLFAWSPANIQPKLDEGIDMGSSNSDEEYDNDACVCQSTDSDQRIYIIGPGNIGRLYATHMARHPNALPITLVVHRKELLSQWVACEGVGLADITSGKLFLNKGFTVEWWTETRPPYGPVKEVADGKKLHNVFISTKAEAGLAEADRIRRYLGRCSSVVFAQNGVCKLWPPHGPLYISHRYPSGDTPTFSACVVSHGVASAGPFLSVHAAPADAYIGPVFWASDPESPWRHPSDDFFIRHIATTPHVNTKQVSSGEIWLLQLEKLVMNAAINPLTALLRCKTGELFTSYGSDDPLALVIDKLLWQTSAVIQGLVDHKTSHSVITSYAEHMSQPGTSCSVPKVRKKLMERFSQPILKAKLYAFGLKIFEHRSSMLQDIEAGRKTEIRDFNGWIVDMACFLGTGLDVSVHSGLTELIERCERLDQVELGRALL

SMILES	spectrophotometric NADPH oxidation at 340 nm (0.29 mM NADPH)	spectrophotometric NADPH oxidation at 340 nm
CC(C)C(=O)C(=O)O [2-Kiv]	The enzyme exhibited the highest activity towards 2-Kiv as substrate	
NC(=O)C1=CN([C@@H]2O[C@H](COP(=O)(O)OP(=O)(O)OC[C@H]3O[C@@H](n4cnc5c(N)ncnc54)[C@H](OP(=O)(O)O)[C@@H]3O)[C@@H](O)[C@H]2O)C=CC1 [NADPH]		KivRFp showed higher coenzyme specificity with respect to NADPH than NADH
